These results are taken from ChEMBL document CHEMBL1201862, “PubChem BioAssay data set” (2004).

Among the test systems are MDA-N; HL-60; HT-29; K562; MCF7; SW-620; SNB-75; SK-MEL-2; HCC 2998; PC-3; MDA-MB-435; RPMI-8226; HCT-15; SK-MEL-28; BT-549; IGROV-1; NCI/ADR-RES; LOX IMVI; NCI-H226; NCI-H522.
Experiment in all cases: DTP human tumour cell line panel, 48 h

Each structure is given as a SMILES string.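 1) Cells in 96-well plates. 2) Compound, 48 h, 5 concentrations. 3) Linear interpolation between surrounding doses. 4) Unreached endpoint = highest concentration. GI50 = concentration required for 50% inhibition of growth.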 Activity calls are given as the source filed them. Rule as the data show it: active = GI50 up to about 1.1 µM and inactive = higher. Where a SMILES comes first, the peptide text is derived from it. The star is where a group is joined. Fmoc = O=C(OCC1c2ccccc2-c2ccccc21)*; Boc = CC(C)(C)OC(=O)*

Consider `O=C1N[C@H]2c3c(Cl)sc(Cl)c3[C@@H](O)[C@H]2O1`, for which the GI50 in the assay on MDA-N, in the assay on HL-60, in the assay on HT-29, with K562, with MCF7 and in the assay with SW-620 was > 100 µM (inactive) each time. Also, the GI50 with SNB-75, in the assay on SK-MEL-2, in the assay on HCC 2998, in the assay with PC-3, in the assay on MDA-MB-435 and in the assay on RPMI-8226 was > 100 µM (inactive) in each case. Also, the concentration for 50% growth inhibition (GI50) in the assay with HCT-15 was greater than 100 µM; in the assay with SK-MEL-28 it was > 100 µM (inactive); in the assay with BT-549 it was > 100 µM (inactive); in the assay on IGROV-1 it was > 100 µM (inactive); in the assay on NCI/ADR-RES, > 100 µM (inactive).

On to `CC(C)(C)OC(=O)NCCCCC(NC(=O)OCC1c2ccccc2-c2ccccc21)C(=O)N1CCCC1C(=O)NCC(N)=O` (stereo not drawn) (Fmoc-Lys(Boc)-Pro-Gly-NH2; configuration not given here), for which the GI50 is 19.3 µM (inactive) in the assay on MDA-N; 32.8 µM (inactive) in the assay with HL-60; 31.3 µM (inactive) in the assay with HT-29; 48.1 µM (inactive) in the assay with K562; 43.9 µM (inactive) in the assay with MCF7; 21.3 µM (inactive) with LOX IMVI. Also, the GI50 in the assay on SW-620 is 87.9 µM (inactive); in the assay with SNB-75, 7.6 µM (inactive); with NCI-H226 it was > 100 µM (inactive); in the assay on SK-MEL-2, > 100 µM (inactive); in the assay on HCC 2998, 58.2 µM (inactive); with PC-3, 27.9 µM (inactive). For the same compound, the GI50 in the assay on MDA-MB-435 was 27.6 µM (inactive); in the assay with RPMI-8226 it was 50.7 µM (inactive); in the assay on HCT-15, 16.1 µM; in the assay with SK-MEL-28, > 100 µM (inactive); in the assay with BT-549, 66.2 µM (inactive); in the assay on IGROV-1 it was 48.4 µM (inactive). For the same compound, the GI50 with NCI/ADR-RES was 33.4 µM (inactive).

Regarding `CCCCCCCCCC(=O)N[C@@H](c1ccco1)[C@@H](O)C(=O)O[C@H]1C[C@@]2(O)[C@@H](OC(=O)c3ccccc3)[C@@H]3[C@]4(OC(C)=O)CO[C@@H]4C[C@H](O)[C@@]3(C)C(=O)[C@H](OC(C)=O)C(=C1C)C2(C)C`, the GI50 was < 0.005 µM (active) in the assay on MDA-N; 0.00966 µM (active) in the assay on HL-60; 0.00598 µM (active) in the assay with HT-29; 0.0187 µM (active) in the assay on K562; 0.00695 µM (active) in the assay on MCF7; 0.0111 µM (active) with LOX IMVI. Further, the concentration for 50% growth inhibition (GI50) is 0.0243 µM (active) in the assay on SW-620; 0.989 µM (active) in the assay with SNB-75; 0.0311 µM (active) in the assay on NCI-H226; 0.0703 µM (active) in the assay with HCC 2998; 0.64 µM (active) in the assay on PC-3; < 0.005 µM (active) with MDA-MB-435. The GI50 is < 0.005 µM (active) in the assay with RPMI-8226; 0.752 µM in the assay on HCT-15; 0.0149 µM (active) with NCI-H522; 0.0498 µM (active) in the assay with SK-MEL-28; 0.0419 µM (active) in the assay with BT-549; 0.0324 µM (active) in the assay on IGROV-1. The GI50 in the assay on NCI/ADR-RES was 4.57 µM (inactive).

As for `Clc1ccc(Cc2nc3ccccc3nc2-c2cccc(Br)c2)cc1`, the GI50 in the assay on MDA-N is 1.97 µM (inactive); in the assay with HL-60, 2.84 µM (inactive); in the assay with HT-29, 2.5 µM (inactive); in the assay with K562, 2.8 µM (inactive); in the assay with MCF7 it was 3.17 µM (inactive); in the assay on LOX IMVI, 1.97 µM (inactive). The GI50 in the assay on SW-620 is 2.04 µM (inactive); in the assay on SNB-75 it was 20.4 µM (inactive); in the assay with NCI-H226 it was 16.9 µM (inactive); in the assay with SK-MEL-2 it was 4.67 µM (inactive); with HCC 2998, 1.62 µM (inactive); in the assay with PC-3 it was 1.92 µM (inactive). Besides, the GI50 in the assay on MDA-MB-435 was 2.14 µM (inactive); with RPMI-8226, 1.64 µM (inactive); in the assay on HCT-15, 1.41 µM; in the assay on NCI-H522, 1.78 µM (inactive); in the assay with BT-549, 3.5 µM (inactive); with IGROV-1, 1.8 µM (inactive). In addition, the GI50 in the assay on NCI/ADR-RES was 3.08 µM (inactive).

On to `CCN(CC)N1C(=O)[N-][N+](CC)(CC)C1=O`, for which the GI50 in the assay on MDA-N, with HL-60, with HT-29, with MCF7, in the assay on LOX IMVI and with SW-620 was > 100 µM (inactive) each time. Also, the GI50 with SNB-75, in the assay with NCI-H226, with SK-MEL-2, in the assay on HCC 2998, in the assay on PC-3 and in the assay with MDA-MB-435 was > 100 µM (inactive) in each case. Besides, the GI50 was > 100 µM (inactive) with RPMI-8226; greater than 100 µM in the assay on HCT-15; > 100 µM (inactive) in the assay with NCI-H522; > 100 µM (inactive) in the assay with SK-MEL-28; > 100 µM (inactive) with BT-549; > 100 µM (inactive) in the assay on IGROV-1. Further, the GI50 in the assay with NCI/ADR-RES was > 100 µM (inactive).

In the case of `Cc1ccccc1Nc1cn(COCc2ccccc2)c(=O)[nH]c1=O`, the GI50 with MDA-N was > 100 µM (inactive); in the assay on HL-60, > 100 µM (inactive); in the assay on HT-29, 48.5 µM (inactive); in the assay with K562, > 100 µM (inactive); in the assay on MCF7 it was > 100 µM (inactive); in the assay on LOX IMVI, 59.8 µM (inactive). Further, the GI50 was > 100 µM (inactive) with SW-620; > 100 µM (inactive) in the assay on HCC 2998; 38.4 µM (inactive) in the assay with PC-3; 85.3 µM (inactive) in the assay on MDA-MB-435; > 100 µM (inactive) in the assay on RPMI-8226; greater than 100 µM with HCT-15. Also, the GI50 was 40.2 µM (inactive) in the assay with NCI-H522; > 100 µM (inactive) in the assay on SK-MEL-28; 14.5 µM (inactive) in the assay on BT-549; 33 µM (inactive) with IGROV-1; 40.2 µM (inactive) in the assay on NCI/ADR-RES.

Regarding `CC(=O)C(N1CCCCC1)C(O)(C(F)(F)F)C(F)(F)F` (stereo not drawn), the GI50 was > 100 µM (inactive) with MDA-N; > 100 µM (inactive) in the assay with HL-60; > 100 µM (inactive) in the assay on HT-29; 50.4 µM (inactive) in the assay with K562; > 100 µM (inactive) in the assay with MCF7; > 100 µM (inactive) with LOX IMVI. Besides, the GI50 with SW-620 was 98.2 µM (inactive); with SNB-75 it was 33.4 µM (inactive); in the assay with NCI-H226 it was > 100 µM (inactive); in the assay with HCC 2998, > 100 µM (inactive); in the assay on PC-3, 36.6 µM (inactive); in the assay on MDA-MB-435, > 100 µM (inactive). Also, the GI50 in the assay with RPMI-8226 is 81.8 µM (inactive); in the assay with HCT-15 it was 79.3 µM; in the assay on NCI-H522, 64 µM (inactive); in the assay with SK-MEL-28, > 100 µM (inactive); in the assay with BT-549, > 100 µM (inactive); in the assay with IGROV-1 it was 89.9 µM (inactive). Moreover, the GI50 in the assay on NCI/ADR-RES is > 100 µM (inactive).

In the case of `Nc1ccc2nc3c(nc2c1)C(=O)c1ccccc1-3`, the GI50 in the assay on MDA-N, in the assay with HL-60, in the assay on HT-29, with K562, in the assay with MCF7 and in the assay with SW-620 was > 100 µM (inactive) in each case. For the same compound, the GI50 in the assay on SNB-75 is > 100 µM (inactive); with NCI-H226, 29 µM (inactive); in the assay on HCC 2998, > 100 µM (inactive); in the assay with PC-3, > 100 µM (inactive); in the assay on MDA-MB-435, > 100 µM (inactive); with RPMI-8226, > 100 µM (inactive). Moreover, the 50% growth inhibitory concentration (GI50) with HCT-15 is greater than 100 µM; in the assay on NCI-H522, > 100 µM (inactive); in the assay with SK-MEL-28, > 100 µM (inactive); in the assay on BT-549, > 100 µM (inactive); in the assay with IGROV-1, > 100 µM (inactive); in the assay with NCI/ADR-RES, > 100 µM (inactive).

For the compound `Cc1ccc([S+]([O-])/C=C(\NC(=O)OCc2ccccc2)C(F)(F)F)cc1` (stereo not drawn), the GI50 with MDA-N is 38.6 µM (inactive); with HL-60, 18 µM (inactive); in the assay with HT-29, 32.1 µM (inactive); in the assay with K562, 28.1 µM (inactive); with MCF7 it was 32.2 µM (inactive); with LOX IMVI, 32.1 µM (inactive). Moreover, the GI50 in the assay with SW-620 is 19.3 µM (inactive); in the assay with SNB-75, 18.8 µM (inactive); with NCI-H226 it was 34.4 µM (inactive); with SK-MEL-2, 32.4 µM (inactive); with HCC 2998 it was 37.5 µM (inactive); in the assay with PC-3 it was 50.4 µM (inactive). Also, the GI50 in the assay on MDA-MB-435 was 22.4 µM (inactive); in the assay with HCT-15, 33.4 µM; with NCI-H522, 29.8 µM (inactive); in the assay on SK-MEL-28, 22.1 µM (inactive); with BT-549 it was > 100 µM (inactive); in the assay on IGROV-1, 45.3 µM (inactive). The GI50 with NCI/ADR-RES is 33.1 µM (inactive).

In the case of `O=[N+]([O-])/C(C(Cl)=C(Cl)Cl)=C(/Nc1ccccc1)Sc1ccccc1`, the GI50 is 24.9 µM (inactive) in the assay on MDA-N; 20.6 µM (inactive) in the assay on HL-60; 22.6 µM (inactive) with HT-29; 20.6 µM (inactive) in the assay on K562; 28.5 µM (inactive) with MCF7; 15.7 µM (inactive) with LOX IMVI. In addition, the GI50 with SW-620 is 25.1 µM (inactive); in the assay with NCI-H226, 23 µM (inactive); in the assay with HCC 2998, 18.5 µM (inactive); in the assay on PC-3, 18.5 µM (inactive); with MDA-MB-435, 18.1 µM (inactive); in the assay on RPMI-8226 it was 32.6 µM (inactive). Further, the GI50 with HCT-15 is 19.8 µM; in the assay with NCI-H522, 16.2 µM (inactive); with SK-MEL-28, 19.7 µM (inactive); in the assay with BT-549, 25.5 µM (inactive); in the assay on IGROV-1, 19.9 µM (inactive); in the assay with NCI/ADR-RES, 24.4 µM (inactive).

Turning to `O=C1CCC(=O)N1n1c(Cc2ccc(Cl)cc2)n[nH]c1=O`, the GI50 with MDA-N, in the assay with HL-60, in the assay with HT-29, in the assay on K562, in the assay with MCF7 and with LOX IMVI was > 100 µM (inactive) each time. For the same compound, the GI50 with SW-620, with NCI-H226, in the assay with SK-MEL-2, in the assay with HCC 2998, in the assay on PC-3 and with MDA-MB-435 was > 100 µM (inactive) throughout. Moreover, the GI50 was > 100 µM (inactive) in the assay with RPMI-8226; greater than 100 µM in the assay with HCT-15; > 100 µM (inactive) in the assay with NCI-H522; > 100 µM (inactive) with SK-MEL-28; > 100 µM (inactive) in the assay with BT-549; > 100 µM (inactive) with IGROV-1. In the assay on NCI/ADR-RES, the GI50 is > 100 µM (inactive).

For orientation: GI50 means the concentration giving 50% growth inhibition.
